# Patent US9487470B2, “4-((substituted phenyl) difluoromethyl) phenoxy carboxylic acid derivative, and preparation method and uses thereof” (Zhejiang Hisun Pharmaceutical Co., Ltd., priority 2012, dated 2016)
# Assays:
# [1] = system: hyperlipoidemia model of Goldenhamsters (blood plasma TC, TG, HDL-C, LDL-C); test: Pharmacological test group 1: effects on blood lipid levels of Goldenhamsters in a hyperlipoidemia model; format: in vivo
# [2] = system: hyperlipoidemia model of Goldenhamsters (blood plasma TC, HDL-C, LDL-C); test: Pharmacological test group 2: effects on blood lipid levels of Goldenhamsters in hyperlipoidemia model; format: in vivo; conditions: for effect on HDL-C, in comparison with the results before administration (in words) / effect on LDL-C, in comparison with the results before administration (in words) / effect on TC, in comparison with the results before administration (in words): t test after vs before administration; for HDL-C, before administration / LDL-C, before administration / TC, before administration: baseline of the group before administration, high-lipid feed 2 weeks, 6 animals
# Excerpt: (§1) Animals: 120 male Goldenhamsters, aged 8 weeks, body weight 80-100 g, provided by Vital River Laboratories, Beijing.
# Kits: The kits for total cholesterol (TC) and high density lipoprotein cholesterol (HDL-C) were provided by SYSMEX, and the kits for low density lipoprotein cholesterol (LDL-C) were provided by Shanghai Kehua Bio-engineering Co., Ltd.
# (§2) Apparatus: SYSMEX Automatic Biochemistry Analyzer, Bechman centrifuge, Setoris balance.
# (§3) The animals were acclimatized and fed for 1 week, ad lib, light cycle was 10 h/14 h, and then feeds with high lipid content were fed to the animals (formulation: 0.3% cholesterol, 20% palm oil, and 79.7% basic feeds). The animals were fed for 2 weeks, and were fasted at 4:00 pm on the 14th day (fasted for 16 h). On the 15th day, the animals were anaesthetized with ethyl ether, weighted, and then 0.5 ml blood was collected from vena orbitalis posterior. The blood was anticoagulated with heparin, and was centrifugated at 5000 rpm for 10 min. The blood plasma was taken, and the levels of TC, HDL-C, and LDL-C in blood plasma were determined using automatic biochemistry analyzer.
# During the administration, feeds with high lipid content were continuously fed to the animals. The animals were fed for 1 week, and were fasted at 4:00 pm on the 7th day. On the 8th day, the animals were anaesthetized with ethyl ether, weighted, and then 0.5 ml blood was collected from vena orbitalis posterior. The blood was anticoagulated with heparin, and was centrifugated at 5000 rpm for 10 min. The blood plasma was taken, and the levels of TC, HDL-C, and LDL-C in blood plasma were determined using automatic biochemistry analyzer.
# (§4) The results were represented by x±s, and t test was employed for comparing the results obtained before and after administration.
# [3] = background statement; cited from earlier work
# [4] = system: hyperlipoidemia model of Goldenhamsters (blood plasma TC, TG, HDL-C, LDL-C); test: Pharmacodynamic test group 3: effects on blood lipid levels of Goldenhamsters in a hyperlipoidemia model; format: in vivo
# Excerpt: as §1
# Kits: The kits for total cholesterol (TC), triglyceride (TG), and high density lipoprotein cholesterol (HDL-C) were provided by SYSMEX, and the kits for low density lipoprotein cholesterol (LDL-C) were provided by Shanghai Kehua Bio-engineering Co., Ltd.
# as §2
# as §3, with “pm of” for “pm on”, “h). At” for “h). On”, “TC, TG,” for “TC,”
# During the administration, feeds with high lipid content were continuously fed to the animals. The animals were fed for 1 week, and were fasted at 4:00 pm of the 7th day. At the 8th day, the animals were anaesthetized with ethyl ether, weighted, and then 0.5 ml blood was collected from vena orbitalis posterior. The blood was anticoagulated with heparin, and was centrifugated at 5000 rpm for 10 min. The blood plasma was taken, and the levels of TC, TG, HDL-C, and LDL-C in blood plasma were determined using automatic biochemistry analyzer.
# as §4
# [5] = Solubility in water (remark on the test drugs); format: physicochemical; conditions: formulated with 20% solutol
# [6] = 40 mg/kg intragastric, 1 week, high-lipid feed continued, blood plasma, x±s, asterisks = P vs before administration
# [7] = 40 mg/kg, t test after vs before administration
# [8] = baseline of the group before administration, high-lipid feed, blood plasma, x±s, 6 animals
# [9] = baseline of the group before administration, high-lipid feed 2 weeks, blood plasma, x±s, 6 animals
compound,measurement,setting,value
fenofibrate [reference compound],"HDL-C, after administration",[1]; [6],4.11 ± 0.15
same,"LDL-C, after administration",[1]; [6],1.15 ± 0.3
same,"TG, after administration",[1]; [6],1.13 ± 0.47
same,"effect on HDL-C, in comparison with the results before administration (in words)",[1]; [7],increases
same,"effect on TG, in comparison with the results before administration (in words)",[1]; [7],significantly decreases
same,"HDL-C, before administration",[1]; [8],3.16 ± 0.24
same,"LDL-C, before administration",[1]; [8],1.35 ± 0.25
same,"TG, before administration",[1]; [8],2.39 ± 1
same,"LDL-C, after administration",[2]; [6],2.45 ± 0.8
same,"effect on HDL-C, in comparison with the results before administration (in words)",[2]; 40 mg/kg,increases
same,"effect on LDL-C, in comparison with the results before administration (in words)",[2]; 40 mg/kg,significantly decrease
same,"effect on TC, in comparison with the results before administration (in words)",[2]; 40 mg/kg,significantly decrease
same,"HDL-C, before administration","[2]; blood plasma, x±s",1.46 ± 0.29
same,"LDL-C, before administration","[2]; blood plasma, x±s",4.24 ± 1.51
same,"TC, before administration","[2]; blood plasma, x±s",13.74 ± 2.71
same,adverse effects to gastrointestinal tract,[3],significant adverse effects to gastrointestinal tract
"CC(C)OC(=O)C(C)(C)Oc1ccc(C(F)(F)c2ccc(Cl)cc2)cc1 [HS003-004, isopropyl 2-(4-((4-chlorophenyl)difluoromethyl)phenoxy)-2-methylpropionate]",regulating effects on the levels of blood lipid (conclusion from table 2),[1]; 40 mg/kg,"tend to the effects of significantly decreasing TG, TC, and LDL-C"
same,"HDL-C, after administration",[1]; [6],3.7 ± 0.31
same,"LDL-C, after administration",[1]; [6],1.27 ± 0.26
same,"TC, after administration",[1]; [6],9.16 ± 1.22
same,"TG, after administration",[1]; [6],1.30 ± 0.23
same,"effect on HDL-C, in comparison with the results before administration (in words)",[1]; [7],increases
same,"effect on TC, in comparison with the results before administration (in words)",[1]; [7],significantly decreases
same,"effect on TG, in comparison with the results before administration (in words)",[1]; [7],significantly decreases
same,blood lipid-regulating effects (conclusion from table 3),[2]; 40 mg/kg,excellent blood lipid-regulating effects
same,"HDL-C, after administration",[2]; [6],1.83 ± 0.18
same,"LDL-C, after administration",[2]; [6],1.97 ± 0.66
same,"TC, after administration",[2]; [6],9.86 ± 0.83
same,therapeutic effect compared with fenofibrate (conclusion from table 3),"[2]; 40 mg/kg, fenofibrate 40 mg/kg","outstanding therapeutic effects, and are superior to fenofibrate"
same,"effect on HDL-C, in comparison with the results before administration (in words)",[2]; 40 mg/kg,increases
same,"effect on LDL-C, in comparison with the results before administration (in words)",[2]; 40 mg/kg,significantly decreases
same,"effect on TC, in comparison with the results before administration (in words)",[2]; 40 mg/kg,significantly decreases
same,"HDL-C, before administration","[2]; blood plasma, x±s",1.61 ± 0.21
same,"LDL-C, before administration","[2]; blood plasma, x±s",3.26 ± 1.58
same,"TC, before administration","[2]; blood plasma, x±s",13.82 ± 2.69
same,blood lipid-regulating effects (conclusion from table 4),[4]; 40 mg/kg,excellent blood lipid-regulating effects
same,"HDL-C, after administration",[4]; [6],3.16 ± 0.24
same,"LDL-C, after administration",[4]; [6],1.86 ± 0.78
same,"TC, after administration",[4]; [6],9.49 ± 1.82
same,"TG, after administration",[4]; [6],2.22 ± 1.61
same,therapeutic effect compared with fenofibrate (conclusion from table 4),"[4]; 40 mg/kg, fenofibrate 40 mg/kg","outstanding therapeutic effects, and are superior to fenofibrate"
same,"effect on HDL-C, in comparison with the results before administration (in words)",[4]; [7],increases
same,"effect on LDL-C, in comparison with the results before administration (in words)",[4]; [7],significantly decreases
same,"effect on TC, in comparison with the results before administration (in words)",[4]; [7],significantly decreases
same,"effect on TG, in comparison with the results before administration (in words)",[4]; [7],significantly decreases
same,"HDL-C, before administration",[4]; [9],2.54 ± 0.22
same,"LDL-C, before administration",[4]; [9],3.54 ± 0.71
same,"TC, before administration",[4]; [9],12.68 ± 1.8
same,"TG, before administration",[4]; [9],3.94 ± 1.07
same,solubility in water,[5],insoluble
